Reference: ChEMBL document CHEMBL1201862, “PubChem BioAssay data set” (2004)
Several values for one entry are separate records, joined by “and”; a condition that tells them apart may be missing. Identical values can stand only once. Activity calls are given as the source filed them.

Tests used:
[1] = NIH3T3 cell viability loss – ATP luminescence, mouse fibroblasts, counter-screen, dose response (AID 2010); type: functional, cell-based;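 further: cells exposed to compound for about 90 hours before reading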
[2] = Trypanosoma cruzi growth suppression in host cells – NIH3T3 host cells, beta-gal luminescence, confirmation (AID 2044); type: functional, cell-based;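 further: intracellular parasites grown in NIH/3T3 mouse fibroblasts as host cells; luminescent beta-galactosidase reporter signal from transgenic T. cruzi replicating inside host cells; inhibitors lower the luminescence signal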
[3] = target: Cytochrome P450 2D6 (Homo sapiens, UniProt P10635);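 further: CYP2D6 member of a cytochrome P450 panel assay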
Sequence of Cytochrome P450 2D6 (P10635 whole entry): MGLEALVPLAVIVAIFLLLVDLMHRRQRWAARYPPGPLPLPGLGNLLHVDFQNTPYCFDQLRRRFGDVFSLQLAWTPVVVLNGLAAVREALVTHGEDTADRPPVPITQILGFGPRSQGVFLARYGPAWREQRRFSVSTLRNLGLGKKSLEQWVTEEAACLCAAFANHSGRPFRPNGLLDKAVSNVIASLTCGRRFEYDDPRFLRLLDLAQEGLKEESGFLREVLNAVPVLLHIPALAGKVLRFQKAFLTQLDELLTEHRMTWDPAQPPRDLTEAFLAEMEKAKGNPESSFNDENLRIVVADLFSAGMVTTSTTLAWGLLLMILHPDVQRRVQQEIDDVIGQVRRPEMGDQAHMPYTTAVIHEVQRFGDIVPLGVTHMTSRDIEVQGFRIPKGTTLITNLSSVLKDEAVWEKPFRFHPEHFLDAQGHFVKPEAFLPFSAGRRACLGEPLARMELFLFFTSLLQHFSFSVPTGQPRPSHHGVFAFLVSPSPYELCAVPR

[4] = test system: Streptococcus; test: GAS UMAA2166 growth inhibition – luminescence, BacTiterGlo, counter-screen for streptokinase expression inhibitor project, dose response (AID 1915); type: functional, organism-based;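 further: potency for reduction of bacterial viability or growth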
[5] = test system: Streptococcus sp. 'group A'; test: Streptococcus pyogenes SK(-)GAS viability under kanamycin – luminescence, BacTiterGlo, confirmation, counter-screen for streptokinase expression inhibitor project, dose response (AID 1900); type: functional, organism-based
[6] = target: Cytochrome P450 2C9 (Homo sapiens, UniProt P11712)
Sequence of Cytochrome P450 2C9 (P11712 whole entry): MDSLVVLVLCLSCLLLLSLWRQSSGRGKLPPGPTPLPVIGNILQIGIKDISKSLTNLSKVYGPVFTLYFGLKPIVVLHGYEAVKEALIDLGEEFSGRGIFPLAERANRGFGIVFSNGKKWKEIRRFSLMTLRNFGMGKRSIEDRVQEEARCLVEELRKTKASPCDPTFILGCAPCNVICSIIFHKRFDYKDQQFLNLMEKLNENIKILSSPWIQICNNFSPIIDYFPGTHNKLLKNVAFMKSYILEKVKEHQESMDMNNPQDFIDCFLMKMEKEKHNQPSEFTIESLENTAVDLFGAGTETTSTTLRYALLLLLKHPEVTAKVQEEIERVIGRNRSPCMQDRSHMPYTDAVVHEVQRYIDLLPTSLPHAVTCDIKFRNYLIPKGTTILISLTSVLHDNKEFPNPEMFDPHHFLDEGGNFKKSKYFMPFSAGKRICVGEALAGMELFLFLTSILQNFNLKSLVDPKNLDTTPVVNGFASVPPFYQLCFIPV

[7] = target: Cytochrome P450 2C19 (Homo sapiens, UniProt P33261); test: Cytochrome panel assay with activity outcomes. Panel member name: p450-cyp2c19 Compounds with AC50 equal or less than 10 uM are considered active; type: functional; conditions: read-out: AC50
Sequence of Cytochrome P450 2C19 (P33261 whole entry): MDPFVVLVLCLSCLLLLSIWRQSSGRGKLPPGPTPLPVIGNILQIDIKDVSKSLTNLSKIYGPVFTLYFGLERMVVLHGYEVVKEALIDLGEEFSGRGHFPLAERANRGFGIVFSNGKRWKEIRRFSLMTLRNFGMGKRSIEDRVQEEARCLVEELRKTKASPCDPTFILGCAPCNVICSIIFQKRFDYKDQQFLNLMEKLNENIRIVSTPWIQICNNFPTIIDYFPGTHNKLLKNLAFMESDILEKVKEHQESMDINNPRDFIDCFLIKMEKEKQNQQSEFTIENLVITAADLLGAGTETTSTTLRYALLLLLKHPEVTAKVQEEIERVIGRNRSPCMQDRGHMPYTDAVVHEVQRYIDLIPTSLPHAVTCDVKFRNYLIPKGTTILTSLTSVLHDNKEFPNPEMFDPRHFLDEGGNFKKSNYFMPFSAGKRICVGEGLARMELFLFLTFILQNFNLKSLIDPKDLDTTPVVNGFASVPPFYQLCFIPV

[8] = target: T1, Cytochrome P450 1A2 (Homo sapiens, UniProt P05177);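 further: PubChem cytochrome P450 panel assay, CYP1A2 panel member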
T1 sequence (P05177 whole entry): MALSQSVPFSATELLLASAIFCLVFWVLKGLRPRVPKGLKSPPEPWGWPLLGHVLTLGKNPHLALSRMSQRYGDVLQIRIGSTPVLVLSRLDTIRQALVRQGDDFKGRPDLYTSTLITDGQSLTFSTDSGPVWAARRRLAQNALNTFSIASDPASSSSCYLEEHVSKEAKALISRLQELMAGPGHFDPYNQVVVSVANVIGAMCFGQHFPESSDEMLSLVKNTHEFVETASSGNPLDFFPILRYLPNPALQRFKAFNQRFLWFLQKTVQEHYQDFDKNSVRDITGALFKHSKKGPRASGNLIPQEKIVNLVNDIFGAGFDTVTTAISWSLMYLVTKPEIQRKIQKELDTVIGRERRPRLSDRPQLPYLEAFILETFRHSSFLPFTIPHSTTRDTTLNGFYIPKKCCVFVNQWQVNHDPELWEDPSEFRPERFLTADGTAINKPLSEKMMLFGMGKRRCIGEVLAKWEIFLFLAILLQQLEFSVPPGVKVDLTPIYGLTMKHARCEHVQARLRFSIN

Row | Compound | AC50 [3] | AC50 [8] | EC50 [1] | EC50 [2] | also measured
1 | CC(CC(=O)N1CCN(c2ccc(C(F)(F)F)cn2)CC1)n1ccnc1 (stereo not given) | – | – | > 60 µM (not active) | 1.51 µM (active) | –
2 | COc1cc(CCN2C(=O)c3cccc4cccc(c34)C2=O)c(S(=O)(=O)N2CCC(C)CC2)cc1OC | – | – | > 60 µM (not active) | 1.51 µM (active) | –
3 | CC(=O)NCCC(=O)Nc1nc(-c2ccc3ccccc3c2)cs1 | – | – | > 60 µM (not active) | 2 µM (active) | –
4 | Fc1ccc2nc(Nc3nc4cc5c(cc4s3)OCO5)sc2c1 | – | – | – | – | EC50 [4]: 3.02 µM (active); EC50 [5]: 7.04 µM (active)
5 | O=c1cnc2cnc(Nc3ccccc3)nc2n1Cc1cccs1 | – | – | – | – | AC50 [6]: 3.16 µM (inconclusive)
6 | CCOC(=O)N1CCN(S(=O)(=O)c2ccc3ncc(C(=O)O)c(O)c3c2)CC1 | – | – | – | – | AC50 [6]: 15.8 µM (inconclusive)
7 | COc1ccc(OC)c(CNc2ccc3c(c2)CCC3)c1 | – | – | > 60 µM (not active) | 2.08 µM (active) | –
8 | CCNc1ncc2nc(C)c(=O)n(C[C@H]3CCCO3)c2n1 | 39.8 µM (inconclusive) | – | – | – | –
9 | Cc1ccc(Cl)cc1N=C(S)N(Cc1ccccc1)Cc1cccnc1 | – | – | > 60 µM (not active) | 0.785 µM (active) | –
10 | CCOC(=O)CNc1nc(C(C)(C)C)nc2c1nnn2Cc1ccccc1Cl | – | – | > 60 µM (not active) | 3.11 µM (active) | –
11 | CN(C)CCCNc1c2c(nc3ccc(Cl)cc13)CCCC2 | – | 3.16 µM (inconclusive) | – | – | –
12 | CCCCCCCNC(=O)c1cc(-c2ccncc2)nc2ccccc12 | – | – | > 60 µM (not active) | 2.98 µM (active) | –
13 | CCn1c(=O)c2c(nc3n2CCS3)n(C)c1=O | – | – | – | – | AC50 [6]: 0.00891 µM (inconclusive); AC50 [7]: 10 µM (inconclusive)
14 | COc1cccc(NC(=O)CSc2nnc(CN3CCOCC3)n2C)c1 | – | – | – | – | AC50 [7]: 28.2 µM (inconclusive)
15 | COc1ccc2c(c1)c(C(=O)N/N=C/c1cccc(Br)c1)c(C)n2C | – | – | > 60 µM (not active) | 0.324 µM (active) | –
16 | COc1ccc2c(c1)s/c(=N/C(=O)CS(=O)(=O)c1ccc(F)cc1)n2C | – | – | > 30 µM (not active) | 0.328 µM (active) | –
17 | COc1ccc(Cc2nccc3cc(OC)c(OC)cc23)cc1OC [PAPAVERINE] | 10 µM (inconclusive) and 25.1 µM (inconclusive) | 10 µM (inconclusive) and 25.1 µM (inconclusive) | – | – | AC50 [7]: 10 µM (inconclusive) and 3.98 µM (inconclusive)

Continued, in another order:

Row | AC50 [3] | AC50 [8] | Compound | EC50 [1] | EC50 [2] | also measured
18 | 25.1 µM (inconclusive) | – | CCNc1ncc2nc(-c3ccc(Cl)cc3)c(=O)n(C)c2n1 | – | – | –
19 | 25.1 µM (inconclusive) | – | COC(=O)[C@@]1(Cc2ccc(F)cc2)[C@H]2c3cc(C(=O)N(C)C)n(CCO)c3C[C@H]2CN1C(=O)c1ccccc1 | – | – | AC50 [7]: 25.1 µM (inconclusive)
20 | – | 10 µM (inconclusive) | CCC(C)(C(=O)NC1CCCC1)N(C(=O)c1ccccn1)c1ccccc1 (stereo not given) | – | – | AC50 [7]: 8.91 µM (inconclusive)
21 | 39.8 µM (inconclusive) | 15.8 µM (inconclusive) | COC(=O)[C@@]1(Cc2ccc(F)cc2)[C@H]2c3cc(C(=O)N4CCCC4)n(CCN4CNCC4=O)c3C[C@H]2CN1C(=O)c1ccccc1 | – | – | AC50 [7]: 39.8 µM (inconclusive)
22 | 8.91 µM (inconclusive) | – | Cc1cccc(NC(=O)CSc2nc3ccccc3c3nc(CCc4c(C)n[nH]c4C)nn23)c1 | – | – | –
23 | 1.12 µM (inconclusive) | – | c1ccc2c(c1)ncn2-c1ccc(-c2ccnc(-c3ccncc3)n2)cc1 | – | – | –
24 | – | 17.8 µM (inconclusive) | O=C(NCCOC12CC3CC(CC(C3)C1)C2)c1cccc(Br)c1 | – | – | –
25 | – | 31.6 µM (inconclusive) | Cc1nnc(SCC(=O)Nc2nccs2)nc1O | – | – | AC50 [6]: 10 µM (inconclusive); AC50 [7]: 10 µM (inconclusive)
26 | 0.631 µM (inconclusive) | – | Cc1ccc(C)c(C(=O)CN2C(=O)c3ccccc3S2(=O)=O)c1 | – | – | –
27 | 17.8 µM (inconclusive) | – | O=S(=O)(c1ccc(F)cc1)n1ccc(-c2cnc(-c3ccccc3)s2)n1 | – | – | –
28 | – | 10 µM (inconclusive) | Cc1cn2c(-c3ccncc3)nnc2s1 | – | – | –
29 | – | 0.794 µM (inconclusive) | C[N+](C)([O-])CCC=C1c2ccccc2CCc2ccccc21 [AMITRIPTYLINOXIDE] | – | – | –
30 | – | 15.8 µM (inconclusive) | O=C(O)c1ccccc1Nc1ccccc1 [FENAMIC ACID] | – | – | AC50 [6]: 15.8 µM (inconclusive)
